From PubChem BioAssay AID2060513 (Molecular Pharmacology Branch, DTP, NCI, 2025)

Test system: 299254-011-R-J1-PDC complex spheroids viability
Test: Anticancer human tumor 299254-011-R-J1-PDC patient-derived melanoma cell line growth inhibition [GQUAD]
Settings: for IC50: curve of first compound; for viability, T/C: stronger effect = lower value
Method in brief: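 Tumor cells were grown as complex spheroids with HUVEC endothelial cells and mesenchymal stem cells as stroma. G-quadruplex stabilizers were combined with targeted agents over half-log dilutions from near the clinical Cmax, or from 10 microM.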

[1] = second compound 0.0316 µM, first compound 0.0316 µM
[2] = second compound 0.0316 µM, first compound 0.1 µM
[3] = second compound 0.0316 µM, first compound 0.316 µM
[4] = second compound 0.0316 µM, first compound 1 µM
[5] = second compound 0.0316 µM, first compound 3.16 µM
[6] = second compound 0.0316 µM, first compound 10 µM
[7] = second compound 0.1 µM, first compound 0.0316 µM
[8] = second compound 0.1 µM, first compound 0.1 µM
[9] = second compound 0.1 µM, first compound 0.316 µM
[10] = second compound 0.1 µM, first compound 1 µM
[11] = second compound 0.1 µM, first compound 3.16 µM
[12] = second compound 0.1 µM, first compound 10 µM
[13] = second compound 0.316 µM, first compound 0.0316 µM
[14] = second compound 0.316 µM, first compound 0.1 µM
[15] = second compound 0.316 µM, first compound 0.316 µM
[16] = second compound 0.316 µM, first compound 1 µM
[17] = second compound 0.316 µM, first compound 3.16 µM
[18] = second compound 0.316 µM, first compound 10 µM
[19] = second compound 1 µM, first compound 0.0316 µM
[20] = second compound 1 µM, first compound 0.1 µM
[21] = second compound 1 µM, first compound 0.316 µM
[22] = second compound 1 µM, first compound 1 µM
[23] = second compound 1 µM, first compound 3.16 µM
[24] = second compound 1 µM, first compound 10 µM
[25] = second compound 3.16 µM, first compound 0.0316 µM
[26] = second compound 3.16 µM, first compound 0.1 µM
[27] = second compound 3.16 µM, first compound 0.316 µM
[28] = second compound 3.16 µM, first compound 1 µM
[29] = second compound 3.16 µM, first compound 3.16 µM
[30] = second compound 3.16 µM, first compound 10 µM
[31] = second compound 10 µM, first compound 0.0316 µM
[32] = second compound 10 µM, first compound 0.1 µM
[33] = second compound 10 µM, first compound 0.316 µM
[34] = second compound 10 µM, first compound 1 µM
[35] = second compound 10 µM, first compound 3.16 µM
[36] = second compound 10 µM, first compound 10 µM
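Note: spheroids exposed to the agents for seven days before readout.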
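Throughout, for viability, T/C: percent viability relative to DMSO vehicle control wells = 100%.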

Question: What does the source list for `O=C(c1cc(Cc2n[nH]c(=O)c3ccccc23)ccc1F)N1CCN(C(=O)C2CC2)CC1` + CN(C)c1ccc(Nc2c3ccc(NC(=O)CCN4CCCC4)cc3nc3cc(NC(=O)CCN4CCCC4)ccc23)cc1?
Answer: IC50 (second compound 0.0316 µM): > 10 µM; IC50 (second compound 0.1 µM): > 10 µM; IC50 (second compound 0.316 µM): > 10 µM; IC50 (second compound 1 µM): > 10 µM; IC50 (second compound 3.16 µM): > 10 µM; IC50 (second compound 10 µM): > 10 µM; viability, T/C [1]: 81.9%; viability, T/C [2]: 88.2%; viability, T/C [3]: 94%; viability, T/C [4]: 92.7%; viability, T/C [5]: 89.4%; viability, T/C [6]: 78.1%; viability, T/C [7]: 78.9%; viability, T/C [8]: 78.1%; viability, T/C [9]: 85.4%; viability, T/C [10]: 96.8%; viability, T/C [11]: 90.7%; viability, T/C [12]: 80.9%; viability, T/C [13]: 95.6%; viability, T/C [14]: 89.1%; viability, T/C [15]: 87.5%; viability, T/C [16]: 82.8%; viability, T/C [17]: 96.1%; viability, T/C [18]: 85.5%; viability, T/C [19]: 87.9%; viability, T/C [20]: 95.2%; viability, T/C [21]: 96%; viability, T/C [22]: 101%; viability, T/C [23]: 106%; viability, T/C [24]: 80.2%; viability, T/C [25]: 79.7%; viability, T/C [26]: 86.9%; viability, T/C [27]: 99.9%; viability, T/C [28]: 91.1%; viability, T/C [29]: 95.8%; viability, T/C [30]: 68.1%; viability, T/C [31]: 96.2%; viability, T/C [32]: 92.3%; viability, T/C [33]: 82.8%; viability, T/C [34]: 89.2%; viability, T/C [35]: 87.6%; viability, T/C [36]: 95%

Question: Which results are given for `COc1ccc([C@@H](O)c2cc(-c3ncnc4cc(N5CCOCC5)ccc34)c(F)cc2Cl)nn1` + Cc1[nH]c2ccc(F)cc2c1-c1nc2c3cccnc3c3ncccc3c2[nH]1?
Answer: IC50 (second compound 0.0316 µM): > 10 µM; IC50 (second compound 0.1 µM): > 10 µM; IC50 (second compound 0.316 µM): 8.51 µM; IC50 (second compound 1 µM): 9.05 µM; IC50 (second compound 3.16 µM): 8.89 µM; IC50 (second compound 10 µM): 7.15 µM; viability, T/C [1]: 97.4%; viability, T/C [2]: 113%; viability, T/C [3]: 108%; viability, T/C [4]: 84.6%; viability, T/C [5]: 83.8%; viability, T/C [6]: 57.7%; viability, T/C [7]: 92%; viability, T/C [8]: 97.3%; viability, T/C [9]: 109%; viability, T/C [10]: 86.9%; viability, T/C [11]: 77.6%; viability, T/C [12]: 51%; viability, T/C [13]: 82.2%; viability, T/C [14]: 108%; viability, T/C [15]: 107%; viability, T/C [16]: 83.4%; viability, T/C [17]: 111%; viability, T/C [18]: 42.1%; viability, T/C [19]: 85.3%; viability, T/C [20]: 92.5%; viability, T/C [21]: 106%; viability, T/C [22]: 98.9%; viability, T/C [23]: 75.9%; viability, T/C [24]: 47.6%; viability, T/C [25]: 96.3%; viability, T/C [26]: 120%; viability, T/C [27]: 87.8%; viability, T/C [28]: 95%; viability, T/C [29]: 97.1%; viability, T/C [30]: 44.6%; viability, T/C [31]: 121%; viability, T/C [32]: 93.3%; viability, T/C [33]: 100%; viability, T/C [34]: 93.9%; viability, T/C [35]: 82.8%; viability, T/C [36]: 36.9%

Question: With `CC(C)n1c(=O)n(C)c2cnc3cc(F)c(-c4ccc(OCCCN5CCCCC5)nc4)cc3c21` + CN(C)c1ccc(Nc2c3ccc(NC(=O)CCN4CCCC4)cc3nc3cc(NC(=O)CCN4CCCC4)ccc23)cc1 as the compound, how does the IC50 (second compound 0.0316 µM) read?
Answer: 9.23 µM

Question: And the IC50 (second compound 0.1 µM)?
Answer: 8.05 µM

Question: What about the IC50 (second compound 0.316 µM) of the same compound?
Answer: 8.13 µM

Question: What about the IC50 (second compound 1 µM) of the same compound?
Answer: 7.22 µM

Question: And the IC50 (second compound 3.16 µM)?
Answer: 5.7 µM

Question: What about the IC50 (second compound 10 µM) of the same compound?
Answer: 2.13 µM

Question: What about the viability, T/C [1] of the same compound?
Answer: 102%

Question: What about the viability, T/C [2] of the same compound?
Answer: 108%

Question: What about the viability, T/C [3] of the same compound?
Answer: 91.2%

Question: And the viability, T/C [4]?
Answer: 76.3%

Question: And the viability, T/C [5]?
Answer: 94%

Question: What about the viability, T/C [6] of the same compound?
Answer: 46.7%

Question: What about the viability, T/C [7] of the same compound?
Answer: 93.4%

Question: And the viability, T/C [8]?
Answer: 79.6%

Question: What about the viability, T/C [9] of the same compound?
Answer: 106%

Question: And the viability, T/C [10]?
Answer: 80.7%

Question: And the viability, T/C [11]?
Answer: 81.3%

Question: And the viability, T/C [12]?
Answer: 42.7%

Question: And the viability, T/C [13]?
Answer: 86.4%

Question: What about the viability, T/C [14] of the same compound?
Answer: 102%

Question: And the viability, T/C [15]?
Answer: 87%

Question: What about the viability, T/C [16] of the same compound?
Answer: 93.2%

Question: What about the viability, T/C [17] of the same compound?
Answer: 85.7%

Question: And the viability, T/C [18]?
Answer: 42.1%

Question: And the viability, T/C [19]?
Answer: 91.6%

Question: What about the viability, T/C [20] of the same compound?
Answer: 87.1%

Question: And the viability, T/C [21]?
Answer: 79.4%

Question: What about the viability, T/C [22] of the same compound?
Answer: 77.6%

Question: What about the viability, T/C [23] of the same compound?
Answer: 85.9%

Question: And the viability, T/C [24]?
Answer: 36.5%

Question: And the viability, T/C [25]?
Answer: 93.9%

Question: And the viability, T/C [26]?
Answer: 81.8%

Question: What about the viability, T/C [27] of the same compound?
Answer: 86.2%

Question: And the viability, T/C [28]?
Answer: 77.2%

Question: What about the viability, T/C [29] of the same compound?
Answer: 61.9%

Question: What about the viability, T/C [30] of the same compound?
Answer: 38.1%

Question: What about the viability, T/C [31] of the same compound?
Answer: 83.2%

Question: What about the viability, T/C [32] of the same compound?
Answer: 79.9%

Question: And the viability, T/C [33]?
Answer: 77%

Question: And the viability, T/C [34]?
Answer: 64.5%

Question: And the viability, T/C [35]?
Answer: 42.4%

Question: What about the viability, T/C [36] of the same compound?
Answer: 28.9%
